Data from PubChem BioAssay AID328 (DTP/NCI, 2004).
“And” between values parts separate entries of the source, which are not always exact repeats. Identical values can stand only once. Inconclusive results and toxic doses are left out.

Tested on: BDF1 mice, P388 leukemia ip, median survival T/C
Test: NCI In Vivo Anticancer Drug Screen. Data for tumor model P388 Leukemia (intraperitoneal) in B6D2F1 (BDF1) mice
Conditions: endpoint: median survival time, higher = longer survival
Method in brief: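 Survival ratio, drug arm over vehicle arm, in mice with a transplanted tumour.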

[1] = dose: 100.0 mg/kg/injection, schedule: Q01DX009 (ip), vehicle: Klucel (hydroxypropylcellulose) (HPC)
[2] = dose: 200.0 mg/kg/injection, schedule: Q01DX009 (ip), vehicle: Klucel (hydroxypropylcellulose) (HPC)
[3] = dose: 100.0 mg/kg/injection, schedule: Q01DX009 (ip), vehicle: saline
[4] = dose: 200.0 mg/kg/injection, schedule: Q01DX009 (ip), vehicle: saline
[5] = dose: 400.0 mg/kg/injection, schedule: Q01DX009 (ip), vehicle: saline

Compound: C=CC12COC(=O)C(=C)C1C(O)C1C(=C)C(=O)OC1C2 (centres undefined)
- T/C (dose: 3.75 mg/kg/injection, schedule: Q01DX009 (ip), vehicle: saline + alcohol): 113 % of control
- T/C (dose: 15.0 mg/kg/injection, schedule: Q01DX009 (ip), vehicle: saline + alcohol): 90 % of control

Compound: COc1cc2cc3c4cc(OC)c(OC)cc4cc[n+]3c(CCC(=O)O)c2cc1OC (tested in a mixture with another compound)
- T/C [1]: 92 % of control
- T/C [2]: 119 % of control

Compound: CCOC(=O)NC
- T/C [3]: 104 % of control
- T/C [4]: 100 % of control
- T/C [5]: 112 % of control

Compound: COc1cc(OC)cc(OC)c1
- T/C (dose: 40.0 mg/kg/injection, schedule: Q01DX009 (ip), vehicle: Klucel (hydroxypropylcellulose) (HPC)): 108 % of control
- T/C (dose: 80.0 mg/kg/injection, schedule: Q01DX009 (ip), vehicle: Klucel (hydroxypropylcellulose) (HPC)): 100 % of control
- T/C (dose: 160.0 mg/kg/injection, schedule: Q01DX009 (ip), vehicle: Klucel (hydroxypropylcellulose) (HPC)): 106 % of control

Compound: N#Cc1cccc(/C=C/C=C\c2ccc([N+](=O)[O-])cc2)c1
- T/C (dose: 100.0 mg/kg/injection, schedule: Q01DX001 (ip), vehicle: Klucel (hydroxypropylcellulose) (HPC)): 95 % of control
- T/C (dose: 200.0 mg/kg/injection, schedule: Q01DX001 (ip), vehicle: Klucel (hydroxypropylcellulose) (HPC)): 90 % of control
- T/C (dose: 400.0 mg/kg/injection, schedule: Q01DX001 (ip), vehicle: Klucel (hydroxypropylcellulose) (HPC)): 90 % of control

Compound: CCC(C)(O)C(=O)OC1C(=O)OC2CC3C(C)CC(=O)C(O)C3(C)C3C4(O)OCC23C1C(C)C4O (centres undefined)
- T/C (dose: 0.12 mg/kg/injection, schedule: Q01DX009 (ip), vehicle: saline with Tween-80): 121 % of control
- T/C (dose: 0.25 mg/kg/injection, schedule: Q01DX009 (ip), vehicle: saline with Tween-80): 118 % of control
- T/C (dose: 0.5 mg/kg/injection, schedule: Q01DX009 (ip), vehicle: saline with Tween-80): 116 % of control
- T/C (dose: 1.0 mg/kg/injection, schedule: Q01DX009 (ip), vehicle: saline with Tween-80): 121 % of control
- T/C (dose: 8.0 mg/kg/injection, schedule: Q01DX009 (ip), vehicle: saline with Tween-80): 122 % of control
- T/C (dose: 16.0 mg/kg/injection, schedule: Q01DX009 (ip), vehicle: saline with Tween-80): 152 % of control

Compound: Fc1ccc(C(Cl)Cl)cc1
- T/C [3]: 104 % of control
- T/C [4]: 109 % of control
- T/C [5]: 118 % of control

Compound: CN(c1ccccc1)c1c2c(oc(=O)c1Cl)-c1ccccc1SC2
- T/C (dose: 1.56 mg/kg/injection, schedule: Q01DX009 (ip), vehicle: saline with Tween-80): 101 % of control
- T/C (dose: 3.13 mg/kg/injection, schedule: Q01DX009 (ip), vehicle: saline with Tween-80): 97 % of control
- T/C (dose: 6.25 mg/kg/injection, schedule: Q01DX009 (ip), vehicle: saline with Tween-80): 91 % of control

Compound: NC(CSC(c1ccccc1)(c1ccccc1)c1ccc(F)cc1)C(=O)O (centres undefined)
- T/C (dose: 2.9 mg/kg/injection, schedule: Q01DX009 (ip), vehicle: Klucel (hydroxypropylcellulose) (HPC)): 107 % of control
- T/C (dose: 4.3 mg/kg/injection, schedule: Q01DX009 (ip), vehicle: Klucel (hydroxypropylcellulose) (HPC)): 123 % of control
- T/C (dose: 12.5 mg/kg/injection, schedule: Q01DX009 (ip), vehicle: Klucel (hydroxypropylcellulose) (HPC)): 170 % of control
- T/C (dose: 23.0 mg/kg/injection, schedule: Q01DX009 (ip), vehicle: Klucel (hydroxypropylcellulose) (HPC)): 216 % of control
- T/C (dose: 25.0 mg/kg/injection, schedule: Q01DX009 (ip), vehicle: Klucel (hydroxypropylcellulose) (HPC)): 227 % of control
- T/C (dose: 25.0 mg/kg/injection, schedule: Q04DX003 (ip), vehicle: Klucel (hydroxypropylcellulose) (HPC)): 170 % of control
- T/C (dose: 35.0 mg/kg/injection, schedule: Q01DX009 (ip), vehicle: Klucel (hydroxypropylcellulose) (HPC)): 222 % of control
- T/C (dose: 50.0 mg/kg/injection, schedule: Q01DX009 (ip), vehicle: Klucel (hydroxypropylcellulose) (HPC)): 255 % of control and 104 % of control and 209 % of control
- T/C (dose: 50.0 mg/kg/injection, schedule: Q04DX003 (ip), vehicle: Klucel (hydroxypropylcellulose) (HPC)): 180 % of control
- T/C (dose: 75.0 mg/kg/injection, schedule: Q01DX009 (ip), vehicle: Klucel (hydroxypropylcellulose) (HPC)): 90 % of control
- T/C [1]: 194 % of control
- T/C (dose: 100.0 mg/kg/injection, schedule: Q04DX003 (ip), vehicle: Klucel (hydroxypropylcellulose) (HPC)): 175 % of control and 185 % of control
- T/C [2]: 100 % of control
- T/C (dose: 200.0 mg/kg/injection, schedule: Q04DX003 (ip), vehicle: Klucel (hydroxypropylcellulose) (HPC)): 285 % of control and 205 % of control
